Source: PubChem BioAssay (NCI)
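How tested: cells in 96-well plates exposed to compound for 48 hours at five concentrations. GI50: concentration for 50% inhibition of growth. TGI: concentration producing complete growth inhibition.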

Experiments:
Experiment in all cases: inhibition of tumour cell growth, NCI panel, 48 h
MALME-3M melanoma = tested on: MALME-3M melanoma
HS 578T breast = tested on: HS 578T breast
MDA-MB-231 breast = tested on: MDA-MB-231 breast
SK-OV-3 ovarian = tested on: SK-OV-3 ovarian
SW-620 colon = tested on: SW-620 colon
OVCAR-3 ovarian = tested on: OVCAR-3 ovarian
A549 NSCLC = tested on: A549 NSCLC
T-47D breast = tested on: T-47D breast
LOX IMVI melanoma = tested on: LOX IMVI melanoma
HL-60(TB) leukemia = tested on: HL-60(TB) leukemia

Row | SMILES | TGI (MALME-3M melanoma) | TGI (HS 578T breast) | TGI (MDA-MB-231 breast) | TGI (SK-OV-3 ovarian) | TGI (SW-620 colon) | TGI (OVCAR-3 ovarian) | TGI (A549 NSCLC) | TGI (T-47D breast) | TGI (LOX IMVI melanoma) | TGI (HL-60(TB) leukemia) | GI50 (MALME-3M melanoma) | GI50 (HL-60(TB) leukemia) | GI50 (SK-OV-3 ovarian) | GI50 (SW-620 colon) | GI50 (OVCAR-3 ovarian) | GI50 (A549 NSCLC) | GI50 (LOX IMVI melanoma) | GI50 (HS 578T breast) | GI50 (MDA-MB-231 breast) | GI50 (T-47D breast)
1 | CC(=O)c1c(CO[N+](=O)[O-])n([O-])c2ccccc2[n+]1=O | > 100 µM | > 100 µM | > 100 µM | > 100 µM | > 100 µM | > 100 µM | > 100 µM | > 100 µM | > 100 µM | – | – | – | – | – | – | – | – | – | – | –
2 | CC(=O)O[C@@]1(C)[C@@H](C)C(=O)O[C@@H]2CCN3CC=C(COC(=O)[C@]1(C)O)[C@H]23 | > 100 µM | – | – | – | > 100 µM | > 100 µM | > 100 µM | – | – | > 100 µM | – | – | – | – | – | – | – | – | – | –
3 | CC(=O)[CH-]C(=O)c1ccccc1.CC(=O)[CH-]C(=O)c1ccccc1.Cc1cc([O-])ccc1Cl.Cc1cc([O-])ccc1Cl.[Ti+4] | 52.8 µM | – | – | > 100 µM | > 100 µM | 60.6 µM | > 100 µM | – | 31.8 µM | 44.2 µM | 20.9 µM | 13.7 µM | 31.3 µM | 34 µM | 18.9 µM | 37.6 µM | 12.6 µM | – | – | –
4 | CSc1snc2sc3c(Cl)nnnc3c12 | 29.3 µM | – | – | 33.3 µM | 16.1 µM | 5.72 µM | 33.9 µM | – | 11.2 µM | – | – | – | – | – | – | – | – | – | – | –
5 | O=C(O/N=C1/CCC/C1=C\c1ccccc1)c1ccc(Cl)c(Cl)c1 | > 100 µM | – | – | > 100 µM | > 100 µM | > 100 µM | > 100 µM | – | > 100 µM | > 100 µM | – | – | – | – | – | – | – | – | – | –
6 | C=C1CC2CC(O)CC(C1)C2 (stereo not given) | > 100 µM | – | – | > 100 µM | > 100 µM | > 100 µM | > 100 µM | – | > 100 µM | – | – | – | – | – | – | – | – | – | – | –
7 | O=C1C2C(C(=O)N1c1ccccc1)C1([N+](=O)[O-])C=C3c4ccccc4N(C(=O)c4ccccc4)C32C2C(=O)N(c3ccccc3)C(=O)C21 (stereo not given) | > 100 µM | – | – | > 100 µM | > 100 µM | > 100 µM | > 100 µM | – | > 100 µM | > 100 µM | – | – | – | – | – | – | – | – | – | –
8 | O=C(NO)[C@@H](Cc1ccccc1)NS(=O)(=O)c1ccc(-c2ccccc2)cc1 | > 25 µM | > 25 µM | > 25 µM | > 25 µM | > 25 µM | > 25 µM | > 25 µM | > 25 µM | > 25 µM | – | > 25 µM | – | > 25 µM | 21.2 µM | 13.6 µM | > 25 µM | 11.9 µM | > 25 µM | > 25 µM | > 25 µM
9 | Nc1n[n+](-c2ccccc2)no1 | > 100 µM | – | – | > 100 µM | > 100 µM | > 100 µM | > 100 µM | – | > 100 µM | > 100 µM | – | – | – | – | – | – | – | – | – | –
10 | Cc1cccc2c1CCC21OC(=O)c2c1ccc1ccccc21 (stereo not given) | 75.5 µM | – | – | > 100 µM | > 100 µM | > 100 µM | > 100 µM | – | > 100 µM | 66 µM | – | – | – | – | – | – | – | – | – | –
11 | CCn1c(-c2nonc2N)nc2c(C#CC(C)(C)O)ncc(OC[C@H]3CCCNC3)c21 | 30.1 µM | 59.5 µM | 55.6 µM | > 82.6 µM | > 100 µM | 25.9 µM | 62.3 µM | – | 45.6 µM | 32 µM | 13.4 µM | 10.6 µM | 0.866 µM | 11.1 µM | 6.92 µM | 15.6 µM | 17.8 µM | 2.58 µM | 17.8 µM | –
12 | CCOC(=O)c1cnc2c(ccc3ncccc32)c1NCCCN(CC)CC | > 100 µM | – | – | > 100 µM | > 100 µM | > 100 µM | > 100 µM | – | 33.6 µM | 38.4 µM | – | – | – | – | – | – | – | – | – | –
13 | NC1=NN(c2ccccc2)C(=O)C1C(=O)C(=O)Nc1nccs1 (stereo not given) | > 100 µM | – | – | > 100 µM | > 100 µM | > 100 µM | > 100 µM | – | > 100 µM | > 100 µM | – | – | – | – | – | – | – | – | – | –
14 | C/C=C(\CCOS(=O)(=O)c1ccc(C)cc1)[Si](C)(C)C | > 100 µM | – | – | > 100 µM | > 100 µM | > 100 µM | > 100 µM | – | > 100 µM | > 100 µM | – | – | – | – | – | – | – | – | – | –
15 | O=C1c2ccccc2-c2c1c1c(O)cccc1n2Cc1ccccn1 | – | > 100 µM | > 100 µM | > 100 µM | > 100 µM | 69.4 µM | > 100 µM | > 100 µM | > 100 µM | – | – | – | 89 µM | 42 µM | 20.1 µM | 45.3 µM | 35.5 µM | 33.6 µM | 28.5 µM | > 100 µM
16 | CC1=C(O)/C(=C/C(C)CCC/C(C)=C/C=C/C(C)CCCc2ccoc2)OC1=O (stereo not given) | 49.4 µM | – | – | – | > 100 µM | – | 73.6 µM | – | > 100 µM | 63.8 µM | – | – | – | – | – | – | – | – | – | –
17 | N#CC1(C#N)C2C=CC(c3coc4cccc2c34)C1(C#N)C#N (stereo not given) | 18.8 µM | – | – | 31.7 µM | 3.32 µM | 29.9 µM | 37.5 µM | – | 28.7 µM | 3.44 µM | – | – | – | – | – | – | – | – | – | –
18 | O=C(N/N=C1\C(=O)N(c2nccs2)C(=O)C(=O)C1c1nc2ccccc2s1)c1ccccc1O (stereo not given) | > 100 µM | – | – | > 100 µM | > 100 µM | > 100 µM | > 100 µM | – | > 100 µM | > 100 µM | – | – | – | – | – | – | – | – | – | –
19 | CCOC(=O)C(CC/C=C\c1ccccc1)N1CCC[C@H]1C(=O)OC (stereo not given in full) | > 100 µM | – | – | > 100 µM | > 100 µM | > 100 µM | > 100 µM | – | > 100 µM | > 100 µM | – | – | – | – | – | – | – | – | – | –
20 | CCN(CC)C(=S)SCN1C(=O)c2ccccc2S1(=O)=O | 97.6 µM | > 100 µM | > 100 µM | > 100 µM | > 100 µM | > 100 µM | > 100 µM | > 100 µM | > 66.8 µM | – | > 48.7 µM | – | > 100 µM | 43 µM | 34.3 µM | 41.2 µM | 29.5 µM | > 100 µM | 50.9 µM | 36 µM
21 | CCOC(=O)c1cnc2sc3ccc4ccccc4c3n2c1=O | > 100 µM | – | – | > 100 µM | > 100 µM | > 100 µM | > 100 µM | – | > 100 µM | 52 µM | – | – | – | – | – | – | – | – | – | –
22 | CCCN(CCC)c1ccc(/C=N/NC(=O)c2cccnc2)c(OC)c1 | 50.4 µM | 99.3 µM | – | 71.3 µM | > 100 µM | 36.7 µM | > 100 µM | 50.8 µM | > 100 µM | 59.2 µM | 18.8 µM | 22.7 µM | 21.6 µM | 24.5 µM | 16.9 µM | 26.6 µM | 23.6 µM | 21.7 µM | – | 17.3 µM
